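1) Cells in 96-well plates. 2) Compound, 48 h, 5 concentrations. 3) Linear interpolation between surrounding doses. 4) Unreached endpoint = highest concentration. Here, GI50 denotes the concentration required for 50% inhibition of growth. TGI: total growth inhibition.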
Tests used:
Assay in all cases: DTP human tumour cell line panel, 48 h
COLO 205 colon = tested on: COLO 205 colon
MALME-3M melanoma = tested on: MALME-3M melanoma
SF-295 CNS = tested on: SF-295 CNS
SK-MEL-5 melanoma = tested on: SK-MEL-5 melanoma
786-0 renal = tested on: 786-0 renal
UO-31 renal = tested on: UO-31 renal
K-562 leukemia = tested on: K-562 leukemia
MDA-MB-435 = tested on: MDA-MB-435
CCRF-CEM leukemia = tested on: CCRF-CEM leukemia
BT-549 breast = tested on: BT-549 breast

Row | Structure (SMILES) | TGI (COLO 205 colon) [µM] | TGI (MALME-3M melanoma) [µM] | TGI (SF-295 CNS) [µM] | TGI (SK-MEL-5 melanoma) [µM] | TGI (786-0 renal) [µM] | TGI (UO-31 renal) [µM] | TGI (K-562 leukemia) [µM] | GI50 (COLO 205 colon) [µM] | GI50 (MALME-3M melanoma) [µM] | GI50 (MDA-MB-435) [µM] | TGI (MDA-MB-435) [µM] | GI50 (CCRF-CEM leukemia) [µM] | TGI (CCRF-CEM leukemia) [µM] | GI50 (SF-295 CNS) [µM] | GI50 (SK-MEL-5 melanoma) [µM] | GI50 (786-0 renal) [µM] | GI50 (UO-31 renal) [µM] | GI50 (BT-549 breast) [µM] | TGI (BT-549 breast) [µM] | GI50 (K-562 leukemia) [µM]
1 | O=S1(=O)C[C@@H](O)[C@H](O)CS1 | > 100 | > 100 | > 100 | > 100 | > 100 | > 100 | > 100 |  |  |  |  |  |  |  |  |  |  |  |  | 
2 | COc1cc2c(/C=C3/C(=O)Nc4ccccc43)c(Cl)n(Cc3ccccc3[N+](=O)[O-])c2cc1C | 15.5 | 13.8 | 22.8 | 19.6 | 22.5 | 25.1 |  | 3.18 | 3.41 | 3.39 | 15.6 | 5.62 | > 100 | 6.9 | 5.02 | 6.31 | 6.29 | 9.16 | 27.8 | 
3 | CC(=O)Nc1ccc(C2[C@H]3C(=O)N(c4ccc(Cc5ccc(N6C(=O)[C@@H]7ON(c8ccccc8)C(c8ccc(NC(C)=O)cc8)[C@@H]7C6=O)cc5)cc4)C(=O)[C@H]3ON2c2ccccc2)cc1 (stereo partly drawn) | > 100 | > 100 | > 100 | > 100 | > 100 | > 100 | > 100 |  |  |  |  |  | > 100 |  |  |  |  |  |  | 
4 | CN(C)c1ccc2c3c(c(=O)oc2c1)CCC3 | > 100 |  | > 100 | > 100 | > 100 | > 100 | > 100 |  |  |  | > 100 |  | > 100 |  |  |  |  |  | > 100 | 
5 | COC(=O)c1ccc(N=NN(C)CO)cc1 | > 100 | > 100 | > 100 | > 100 | > 100 | > 100 | > 100 |  |  |  |  |  | > 100 |  |  |  |  |  |  | 
6 | CC(=O)/C=C/c1ccc(C2CC(C)=Nc3c(ccc4c3C(=O)c3ccccc3C4=O)N2)cc1 (stereo not drawn) | > 100 | > 100 | > 100 | > 100 | > 100 | > 100 | > 100 |  |  |  |  |  | > 100 |  |  |  |  |  |  | 
7 | CN(c1ccccc1)C(c1ccccc1)C(O)c1ccccc1 (stereo not drawn) | 30.1 | 31.4 | 32 | 34.7 | 33.8 | 41.9 | 41.1 |  |  |  |  |  | 63.3 |  |  |  |  |  |  | 
8 | COc1ccc(/C=C2/C[N+](C)(C)C/C(=C/c3ccc(OC)cc3)C2=O)cc1 | 40.8 | 61.3 | > 100 | > 72 | > 100 | > 100 | > 100 |  |  |  |  |  | > 96.1 |  |  |  |  |  |  | 
9 | COC(=O)c1c(CC#N)cccc1CC#N | > 100 | > 100 | > 100 |  | > 100 | > 100 | > 100 |  |  |  |  |  | > 100 |  |  |  |  |  |  | 
10 | CCOC(=O)CC1=CSC2=NCCN12 | > 100 | > 100 | > 100 | > 100 | > 100 | > 100 | > 100 |  |  |  |  |  | > 100 |  |  |  |  |  |  | 
11 | N.N.NC(CS)C(=O)[O-].NC(CS)C(=O)[O-].[Pt+4] (stereo not drawn) | > 50 | > 50 | > 50 | > 50 | > 50 | > 5 | > 50 | > 50 | > 50 |  |  | > 50 | > 50 | > 50 | > 50 | > 50 | > 5 |  |  | > 50
12 | O=C([CH-]C(=O)c1ccccc1)c1ccccc1.O=C([CH-]C(=O)c1ccccc1)c1ccccc1.[Nd+3].[OH-].[OH3+] | 31.4 | 53.2 | 22.8 | 17.2 | 33.7 | 12.4 | 19.1 | 13.9 | 12.4 |  |  |  |  | 3.95 | 3.94 | 7.79 | 3.11 |  |  | 3.31
13 | O=c1cc2ccccc2nn1-c1ccccc1Cl | > 100 | > 100 | > 100 | > 100 | > 100 | 96.6 | > 100 |  |  |  |  |  | > 100 |  |  |  |  |  |  | 
14 | O=C1C(=O)c2ccccc2C(O)=C1C(CCc1ccccc1)C1=C(O)c2ccccc2C(=O)C1=O | > 100 | 29.7 | > 100 | 30.9 | > 100 | > 100 |  |  |  |  | 28.4 |  | > 100 |  |  |  |  |  | > 100 | 
15 | CS(=O)c1ccc(COP(N)(=O)N(CCCl)CCCl)cc1 (stereo not drawn) | > 100 | > 100 | > 100 | > 100 | > 100 | > 100 | > 100 |  |  |  |  |  | > 100 |  |  |  |  |  |  | 
16 | C=C1CC[C@@H]2C(C)(C)CCC[C@@]2(C)[C@@H]1Cc1cc(O)ccc1O | 31.4 | 17.4 | 28.2 | 19.7 | 12 | 5.25 | 16.7 |  |  |  |  |  | 5.23 |  |  |  |  |  |  | 
17 | C=C(CN1CCc2ccccc2C1)c1ccc(C(=O)Nc2ccc(N)cc2)cc1 | 60.6 | 61 | 59.4 | 30.9 | > 100 | 30.5 | > 100 | 22.7 | 18.3 | 3.11 | 11.3 | 0.454 | > 100 | 16.5 | 16.3 | 22.9 | 3.93 |  |  | 1.94
18 | COC(=O)/C(=C\c1c(C)[nH]c2ccccc12)S(=O)(=O)c1ccccc1 | 22.1 | 32.6 | 15.7 |  | 24.1 | 18.4 | > 100 | 7.45 | 7.27 | 2.86 | 13.8 |  |  | 3.07 |  | 8.23 | 4.39 | 5.4 | 25.5 | > 100
19 | O=C(O)C12C3CCCC1C2CC3 (stereo not drawn) | > 100 | > 100 | > 100 | > 100 | > 100 | > 100 | > 100 |  |  |  |  |  | > 100 |  |  |  |  |  |  | 
20 | CC1NOC(=O)C1N=Nc1ccccc1Cl (stereo not drawn) | > 100 | 65.7 | > 100 | 32.9 | > 100 | 34.5 | > 100 |  |  |  |  |  | > 100 |  |  |  |  |  |  | 
21 | COc1nc(C)cc2c(=O)n(-c3ccccc3)n(CCCN3CCN(c4ccc(Cl)cc4)CC3)c(=O)c12 | > 50 | > 50 | > 50 | > 50 | > 50 | > 50 | > 50 | > 50 | > 50 | > 50 | > 50 |  |  | 29.2 | 16.9 | 31.2 | 31.9 |  |  | 35

From PubChem BioAssay (NCI)
